The text below walks through data of patent US9394544B2, “Ameliorating oxidative stress in neurodegenerative disease via Nox1 targeting” (University of Central Florida Research Foundation, Inc., priority 2013, dated 2016).

Data set [1] concerns SN DA neurons. Kind of data set: Stereologic counting of TH-immunostained DA neurons in the SN, 6-OHDA rat model. The format is in vivo. As to conditions: direct injection into the rat SN, in 2 weeks. On the procedure:
The experiments were carried out on rats, in accordance with the NIH Guide for the Care and Use of Laboratory Animals. All procedures were approved by the local Animal Care and Use Committee. Female Sprague Dawley (SD) rats (Charles River; 8-weeks-old at the time of the beginning of AAV expression or 6-OHDA treatment, 2 or 3 per cage) were maintained in a temperature/humidity-controlled environment under a 12 h light/dark cycle with free access to food and water. All rats were respectively allocated into […], Nox1 shRNA/AAV, T17N Rac1/AAV, and scramble (scb) shRNA/AAV or empty vector/AAV as control groups. Rats were deeply anesthetized (ketamine and xylazine mixture 30 mg/kg, i.p.) and placed in a rat stereotaxic apparatus, a site in the right substantia nigra (SN) [coordinate: anteroposterior (AP), −5.3 mm; mediolateral (ML), +2.0 mm; dorsoventral (DV), −5.8 mm] was selected to inject scb shRNA/AAV (n=8), Nox1 shRNA/AAV (n=16), T17N Rac1/AAV (n=16), and empty vector/AAV (n=28), respectively, according to the grouping. […]
A set consisting of six sections, 360 μm apart, were prepared. […] Numbers of TH-immunoreactive cells in the substantia nigra (SN) were counted using the optical fractionator (West 1990). […] The coefficient of error and coefficient of variation were also determined.

Data set [2] relates to Rac1. Kind of data set: Rac1 activation assay (active GTPase pull-down) in N27 cells. The format is cell-based, rat. To be noted: 6 h post administration. The text has this: The NADPH oxidase is a multi-subunit enzyme that consists of the catalytic subunits (Nox isoforms) together with the regulatory subunits including p22phox, p47phox, p40phox, p67phox, Nox organizer 1 (Noxo1), Nox activator 1 (Noxa1), and small GTPase Rac1. In order to test whether dopaminergic (DA) cells are equipped with the NOX components, N27, a well-established rat DA cell line was examined (Prasad et al. 1994). The mRNAs encoding each Nox isoform and regulatory subunits were detected using RT-PCR. Since transcriptional induction of Nox1 and Nox4 has already been reported in several tissues under a variety of stimuli, transcripts were determined in both nontreated and 6-hydroxydopamine (6-OHDA), a DA neurodegenerative compound, treated DA cells. ROS generation as induced by 6-OHDA (100 μM) and subsequent cell death was observed. All Nox isoforms (Nox1, Nox2, Nox4, Duox1 and Duox2) except Nox3 and Nox5 were detected (FIG. 1A). […] Mitochondria, which have long been considered as a major source of ROS, play a key role in Nox1-mediated superoxide generation (Desouki et al. 2005). […] Cytoplasmic regulatory subunits including p47phox, Noxa1, and Noxo1 were constitutively expressed in DA cells as well (FIG. 1A). Noxa1 and Noxo1 are homologues of p67phox and p47phox, respectively. […] GTP-bound active Rac1 was measured in DA cells treated with 6-OHDA for various duration from 1 h to 6 h. […]

Structures are written as SMILES.

On to `NCCc1cc(O)c(O)cc1O` [6-OHDA, 6-hydroxydopamine], for which the “loss of TH-positive SNDA neurons” value in data set [1] is 90%-95%. In data set [2], the “GTP-bound active Rac1” value is given as “Rac1 activation was observed”.
